# Reference: patent publication US10744152B2, “Application of Asarum total polysaccharides in preparation of medicine for treating cough” (THE FIRST AFFILIATED HOSPITAL OF GUANGZHOU MEDICAL …, priority 2014, dated 2020)
# Marks after values point to notes of the source that are not given here.
# What was measured:
# [1] = tested on: guinea pig models with cough hypersensitivity; test: Airway inflammation indicators in BALF (TCC, classification of cells) of guinea pig models with cough hypersensitivity; assay type: in vivo; conditions: 30 mg/kg, 14 days
# Description: Experimental materials are same as those of the Embodiment 5. […] Schmidt var.
# [2] = tested on: guinea pig models with cough hypersensitivity; test: Antitussive effect on guinea pig models with cough hypersensitivity (CS-exposure 14 days, citric acid excitation); assay type: in vivo; conditions: for Antitussive rate: vs model group
# Description: (1) Calculating the cough frequency within 6 min after citric acid excitation, and calculating the antitussive rate of each administration group by using the formula “the antitussive rate=(Nmodel group−Nadministration group)/Nmodel group×100%”.
# (2) Calculating the cough latent period of each administration group within 6 min after citric acid excitation;
# Experimental materials are same as those of the Embodiment 5. […] Schmidt var. Mandshuricum (Maxim.) Kitag. into pieces, adding 20 times amount of distilled water to soak the cut roots overnight, extracting decoction from boiling water for 6 hours, filtering the decoction with four layers of gauze, repeatedly decocting filter residues twice, 6 hours each time, combining the filtrates, concentrating the filtrate to 1000 ml, precipitating with 80% of ethanol, centrifuging (4500 r/m, 10 min), and conventionally drying the precipitates (washing the precipitates three times with each of ethanol and ether) to obtain coarse Asarum polysaccharides (Li Jingjing, Study on the Separation, Purification and Immunological Activity of Polysaccharide from Asarum heterotropoides, Journal of Changchun Normal University (Natural Science), 2008, 27(1): 54-58)), a group of the Asarum total polysaccharides extract in the Embodiment 1 (800 mg/kg), and a group of the Asarum total polysaccharide extract in the Embodiment 2 (800 mg/kg). The rest of experimental methods are same as the Embodiment 5.
# [3] = tested on: guinea pig models with acute cough; test: Acute antitussive effect on cough of guinea pigs induced by citric acid
compound,measurement,setting,value
"COc1ccc2c3c1O[C@H]1[C@@H](O)C=C[C@H]4[C@@H](C2)N(C)CC[C@@]341 [Codeine phosphate, codeine phosphate]",Eos %,[1]; BALF,3.6 +/− 3.1%
same,Lym %,[1]; BALF,5.3 +/− 1.1%
same,Mac %,[1]; macrophages in BALF,39.4 +/− 7.1%
same,Neu %,[1]; neutrophils in BALF,51.8 +/− 8.4%
same,Cough frequency,"[2]; 30 mg/kg intragastric once a day 14 days, CS-exposure 14 days, within 6 min after citric acid",5.7 +/− 1.9*** times
same,Cough latent period,"[2]; 30 mg/kg, 14 days, CS-exposure, after citric acid",199.7 +/− 37.7*** seconds
same,Antitussive rate,"[2]; 30 mg/kg, 14 days",81.1%
same,Cough frequency,"[2]; Embodiment 8 comparison of different extracts, 30 mg/kg, 14 days",5.7 +/− 1.9*** times
same,Antitussive rate,"[2]; Embodiment 8 comparison, 30 mg/kg, 14 days",81.1%
same,Cough frequency,"[3]; 30 mg/kg once a day for 3 days, within 6 min after citric acid nebulization",8.5 +/− 2.6*** times
same,Cough latent period,"[3]; 30 mg/kg, 3 days, after citric acid nebulization",95.3 ± 18.3 s
same,Antitussive rate,"[3]; 30 mg/kg, 3 days, vs blank control group",70.5%
